Laboratory results from patent publication US11491117B2, “Compounds for the prevention and treatment of glucose intolerance related conditions and obesity” (SORBONNE UNIVERSITÉ, priority 2017, dated 2022).

System: Goto-Kakizaki (GK) rats
Test: Chronic subcutaneous infusion in Goto-Kakizaki rats: body and organ weight, glucose homeostasis (IPGTT), insulin secretion
Assay type: in vivo, rat
Experimental: The animal experiments on rats were conducted on diabetic adult 8 months aged male Goto-Kakizaki (GK) rats from the local colony of Paris-Diderot University (Paris, France). GK strain derived after backcrossing of animals selected at the upper limit of normal distribution for glucose tolerance. Characteristics of GK rats have been previously described. Rats had free access to a control carbohydrate diet (CHD) (D 12450Ki, Research diets, NJ) and were kept on 12 h light/dark cycle. […] Rats were killed by decapitation and blood and organs collected for measurement of metabolic parameters, islet isolation for quantitative RT-PCR analysis and immunohistochemistry. […] After three weeks of metabolite treatment (i.e. four weeks of HFD feeding) an intra-peritoneal glucose tolerance test (IPGTT) (2 g/kg) was performed in conscious mice following an overnight fast. Blood was collected from the tail vein before glucose injection and 15, 30, 60 and 120 minutes afterwards. Additional blood samples were collected during the IPGTT in GK rats 15, 90, 180 and 240 minutes after glucose injection. Blood glucose levels were determined using an Accu-Check® Performa (Roche Diagnostics, Meylan, France). Additional blood samples were collected at base line and 30 minutes after glucose injection in Microvette® CB 300 Lithium Heparin ([…], France). Plasma was separated by centrifugation and stored at -80° C. until insulin radioimmunoassay. Evaluation of overall glucose tolerance was obtained from cumulative glycemia (GCum) and the ΔG, which were determined by the total increment of plasma glucose values during the IPGTT (GCum) and the cumulative glycemia during the test above baseline (ΔG). After six weeks of metabolite treatment, mice were killed by decapitation and organ were dissected and weighed. Half of liver, fat and pancreas samples were snap frozen in liquid nitrogen and stored at -80° C. for molecular studies, and the second half processed for histopathology. All procedures were authorized following review by the institutional ethic committee and carried out under national license condition (Ref 00486.02). Blood glucose was measured using an Accu-Check® Performa (Roche Diagnostics, Meylan, France) and plasma insulin was determined using Insulin ELISA kits (Mercodia, Uppsala, Sweden). For determination of liver triglycerides, liver samples (100 mg) were homogenized and incubated in NonidetP-40 (5%) and supernatants containing triglycerides were collected. Triglycerides concentration was quantified in the supernatant fraction using a colorimetric assay (ab65336, Abcam, Paris, France) by measuring OD at 570 nm. The ratio NAD/NADH was determined using a quantification kit (MAK037; […] Samples were homogenized in the extraction buffer and clarified by centrifugation. Supernatant was deproteinized by filtration through a 10-kDa cutoff spin filter (Millipore SAS, Molsheim, France). The assay was then performed according to the manufacturer's instructions.

In the case of `Cc1ccc(O)cc1` [4-cresol], the fasting glycemia is reported as “significant reduction”, the “glycemic response to the glucose challenge throughout the IPGTT (glucose intolerance)” value is reported as “decrease” and the cumulative glycemia (IPGTT) is reported as “significant drop”. For the same molecule, the “increase in pancreas weight” value (P<0.01) was “+94.6%”, the BMI (chronic administration 6 weeks) was “no effect” and the body weight (chronic administration 6 weeks) was “no effect”. For the same molecule, the fasting insulinemia (vs saline) was “significantly more elevated” and the “glucose-induced insulin secretion during the IPGTT” value (vs saline) was “significantly more elevated”.
